Data from ChEMBL document CHEMBL3400114, “The design, synthesis and biological evaluation of conformationally restricted 4-substituted-2,6-dimethylfuro[2,3-d]pyrimidines as multi-targeted receptor tyrosine kinase and microtubule inhibitors as potential antitumor agents” (Bioorg Med Chem, 2015).

How the values were obtained:
[1] = Growth inhibition of human LOXIMVI cells after 48 hrs by sulforhodamine B assay; type: functional; conditions: LOX IMVI
[2] = Growth inhibition of human UACC62 cells after 48 hrs by sulforhodamine B assay; type: functional; conditions: UACC-62, 48 h
[3] = Growth inhibition of human UO31 cells after 48 hrs by sulforhodamine B assay; type: functional; conditions: UO-31, 48 h
[4] = Growth inhibition of human HOP92 cells after 48 hrs by sulforhodamine B assay; type: functional; conditions: HOP-92, 48 h
[5] = Growth inhibition of human OVCAR3 cells after 48 hrs by sulforhodamine B assay; type: functional; conditions: OVCAR-3, 48 h
[6] = test system: MDA-MB-468; test: Growth inhibition of human MDA-MB-468 cells after 48 hrs by sulforhodamine B assay; type: functional; conditions: MDA-MB-468, 48 h
[7] = Growth inhibition of human HCT116 cells after 48 hrs by sulforhodamine B assay; type: functional; conditions: HCT-116, 48 h
[8] = test system: K562; test: Growth inhibition of human K562 cells after 48 hrs by sulforhodamine B assay; type: functional; conditions: K562, 48 h
[9] = test system: SW-620; test: Growth inhibition of human SW620 cells after 48 hrs by sulforhodamine B assay; type: functional; conditions: SW-620, 48 h
[10] = test system: U-251; test: Growth inhibition of human U251 cells after 48 hrs by sulforhodamine B assay; type: functional; conditions: U-251, 48 h
[11] = test system: A-431; test: Antiproliferative activity against human A431 cells after 48 hrs by sulforhodamine B assay; type: functional, cell-based; conditions: A-431, 48 h
[12] = test system: SK-OV-3; test: Growth inhibition of human SKOV3 cells after 48 hrs by sulforhodamine B assay; type: functional; conditions: SK-OV-3, 48 h
[13] = test system: MDA-MB-231; test: Growth inhibition of human MDA-MB-231 cells after 48 hrs by sulforhodamine B assay; type: functional; conditions: MDA-MB-231, 48 h
[14] = Growth inhibition of human RXF393 cells after 48 hrs by sulforhodamine B assay; type: functional; conditions: RXF 393, 48 h
[15] = Growth inhibition of human HCT15 cells after 48 hrs by sulforhodamine B assay; type: functional; conditions: HCT-15, 48 h
[16] = Growth inhibition of human OVCAR8 cells after 48 hrs by sulforhodamine B assay; type: functional; conditions: OVCAR-8, 48 h

COc1ccc2c(c1)CCCN2c1nc(C)nc2oc(C)cc12
GI50 [1]: < 10 nM
GI50 [2]: < 10 nM
GI50 [3]: < 10 nM
GI50 [4]: 58.6 nM
GI50 [5]: < 10 nM
GI50 [6]: < 10 nM
GI50 [7]: < 10 nM
GI50 [8]: < 10 nM
GI50 [9]: < 10 nM
GI50 [10]: < 10 nM
IC50 [11]: 18 nM
GI50 [12]: < 10 nM
GI50 [13]: 11.4 nM
GI50 [14]: < 10 nM
GI50 [15]: < 10 nM
GI50 [16]: < 10 nM
